Source: ChEMBL document CHEMBL5729615, “Inhibitors of protein arginine methyltransferase 5 (PRMT5), pharmaceutical products thereof, and methods thereof” (2023)

Target: PRMT5/MEP50 complex (Homo sapiens, UniProt O14744)
Assay: 2.5 μL of compound solution in the assay buffer with 4% DMSO and 5 μL of PRMT5/MRP50 complex/SAM mixture solution in the assay buffer which was pre-incubated for 30 minutes were added into a white low volume 384 well microtiter plate. This mixture solution was incubated for 15 minutes with gentle shaking at room temperature. Methyl transfer reaction was initiated by adding 2.5 μL of Biotin-H4 (1-21) peptide substrate solution in the assay buffer. […] The reaction was allowed to perform for 120 minutes in dark with gentle shaking at room temperature after which 5 μL of Anti-H4R3-Me AlphaLISA acceptor beads in detection buffer from the manufacturer was added into the reaction mixture followed by incubation for 60 minutes. 10 μL of Streptavidin labeled AlphaLISA donor beads in detection buffer was added into the mixture followed by 30 minute incubation. Final acceptor and donor beads concentrations were 10 μg/mL.
Format: protein-complex assay

PRMT5/MEP50 complex, sequence (O14744 whole entry): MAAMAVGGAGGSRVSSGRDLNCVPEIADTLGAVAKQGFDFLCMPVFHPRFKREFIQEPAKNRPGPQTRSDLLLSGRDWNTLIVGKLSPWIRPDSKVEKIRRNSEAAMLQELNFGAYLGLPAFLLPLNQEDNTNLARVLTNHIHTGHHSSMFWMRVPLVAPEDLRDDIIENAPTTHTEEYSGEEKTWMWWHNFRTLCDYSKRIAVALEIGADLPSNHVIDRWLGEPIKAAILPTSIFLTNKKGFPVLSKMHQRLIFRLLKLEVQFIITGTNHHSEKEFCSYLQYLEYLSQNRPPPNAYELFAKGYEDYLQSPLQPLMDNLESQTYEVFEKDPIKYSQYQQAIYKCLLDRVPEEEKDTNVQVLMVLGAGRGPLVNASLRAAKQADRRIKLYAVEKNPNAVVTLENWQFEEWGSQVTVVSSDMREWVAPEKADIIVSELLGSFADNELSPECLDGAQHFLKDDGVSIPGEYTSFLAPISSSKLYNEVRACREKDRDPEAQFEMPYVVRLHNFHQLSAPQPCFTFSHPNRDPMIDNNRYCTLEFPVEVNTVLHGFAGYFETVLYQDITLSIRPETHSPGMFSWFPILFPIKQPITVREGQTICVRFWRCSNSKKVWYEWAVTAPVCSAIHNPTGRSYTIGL
PRMT5/MEP50 complex, sequence (Q9BQA1 whole entry, further chain): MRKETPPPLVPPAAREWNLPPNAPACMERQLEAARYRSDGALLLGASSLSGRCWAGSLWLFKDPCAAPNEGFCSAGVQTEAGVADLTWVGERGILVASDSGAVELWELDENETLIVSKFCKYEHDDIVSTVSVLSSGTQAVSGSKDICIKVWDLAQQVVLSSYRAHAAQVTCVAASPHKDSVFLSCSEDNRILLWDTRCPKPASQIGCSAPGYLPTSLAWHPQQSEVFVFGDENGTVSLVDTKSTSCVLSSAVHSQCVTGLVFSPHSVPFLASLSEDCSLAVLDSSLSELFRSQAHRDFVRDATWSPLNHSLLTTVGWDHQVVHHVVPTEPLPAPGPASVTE

IC50: 236 nM
SMILES: O=C1c2cc(NC3CCC3)ccc2CCN1CC(O)CN1CCc2ccccc2C1 (stereo unspecified)
